Data taken from patent US12048686B2, “Compositions and methods for activating NRF2-dependent gene expression” (The University of Chicago, priority 2018, dated 2024).

Molecular target: T1, PGK1 (Homo sapiens, UniProt P00558)
T1 sequence (P00558 1-417): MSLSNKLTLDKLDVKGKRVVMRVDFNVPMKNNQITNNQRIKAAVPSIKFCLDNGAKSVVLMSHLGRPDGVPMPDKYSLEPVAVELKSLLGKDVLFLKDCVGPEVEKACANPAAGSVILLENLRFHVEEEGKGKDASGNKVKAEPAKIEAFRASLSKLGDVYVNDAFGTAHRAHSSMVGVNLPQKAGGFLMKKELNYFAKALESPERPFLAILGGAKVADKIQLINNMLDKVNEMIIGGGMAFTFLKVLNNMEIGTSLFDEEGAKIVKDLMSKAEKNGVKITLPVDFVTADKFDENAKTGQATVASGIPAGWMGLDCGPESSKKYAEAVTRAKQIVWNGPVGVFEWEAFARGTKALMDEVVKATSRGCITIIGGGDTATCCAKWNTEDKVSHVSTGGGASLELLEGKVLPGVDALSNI
Experiment: Recombinant PGK1 assay (GAPDH/PGK1 coupled assay, NADH absorbance)
Type: biochemical
Details: absorbance 340 nm
From the text: FIG. 6A-D. CBR-470-1 inhibits PGK1 in vitro and in situ. (a) Schematic of the GAPDH/PGK1 coupled assay. Pre-equilibration of the GAPDH reaction (top left) results in an NAD^+/NADH equilibrium, which upon addition of PGK1 and ADP pulls the reaction to the right producing more NADH. Monitoring NADH absorbance after addition of PGK1 (bottom right) can be used to monitor PGK1 activity in the forward direction (right). […] (c, d) Relative level of central metabolites in IMR32 cells treated with viral knockdown of PGK1 for 72 hours (c) (n=4) and with CBR-470-1 relative DMSO alone for the indicative times (d) (n=3). Each metabolite is normalized to the control condition at each time point. Data shown represent mean±SEM of biologically independent samples.
Recombinant PGK1 assay. PGK1 enzymatic activity in the forward direction was measured with a coupled enzymatic assay^34. Three PGK1 conditions were prepared by dissolving recombinant PGK1 in potassium phosphate buffer (10 mM KH2PO4, 10 mM MgSO4, pH 7.0), and transferring the aliquots of PGK1 solution to the microtubes being treated with same amount of DMSO and indicated concentrations of CBR-470-1. Final concentration of PGK1 is 20 ng/mL and DMSO is 1% for each sample. […] The change in absorbance at 340 nm at room temperature was measured every 20 seconds for 45 minutes, by Tecan Infinite M200 plate reader. […]

Compound: CC(C)CN[C@H]1CS(=O)(=O)C[C@@H]1S(=O)(=O)c1ccc(Cl)cc1 [CBR-470-1]
- PGK1-dependent activity and accumulation of NADH: significantly inhibits PGK1-dependent activity and accumulation of NADH
